Data published in BindingDB's records for doi:10.1016/s0960-894x(98)00284-4 (Glaxowellcome, 1998).

Target: Glutamate receptor ionotropic, NMDA 1 (Rattus norvegicus, UniProt P35439)
Experiment: ChEBML_140329
Procedure: In vitro affinity of compound for the glycinergic site associated with NMDA receptor was assessed by inhibition of the binding of [3H]glycine

| SMILES | Ki [nM] |
| --- | --- |
| O=C(O)c1[nH]c2cc(Cl)cc(Cl)c2c1/C=C1\CCN(c2ccccc2)C1=O | 7.5 |
| O=C(O)c1[nH]c2cc(Cl)cc(Cl)c2c1/C=C1\CCCN(c2ccccc2)C1=O | 7.3 |
